From patent US11919858B2, “Aminonapthoquinone compounds and pharmaceutical composition for blocking ubiquitination-proteasome system in diseases” (Calgent Biotechnology Co., Ltd., priority 2015, dated 2024)
pIC50, pKd: −log10 of the molar value.

How the values were obtained:
ITCH = ITCH (Homo sapiens, UniProt Q96J02); assay: Blocking of ITCH self-ubiquitination, in vitro assay; assay type: biochemical; details: FIG. 1
Excerpt: MPT0L056 of the invention was used to test the blocking of ITCH self-ubiquitination. […] [Reference for in vitro assay: Scialpi F, Malatesta M, Peschiaroli A, Rossi M, Melino G, and Bernassola F. Itch self-polyubiquitylation occurs through lysine-63 linkages. Biochem Pharmacol. 2008 Dec. 1; 76(11):1515-21. Reference for in vivo assay: Chang L, Kamata H, Solinas G, Luo J L, Maeda S, Venuprasad K, Liu Y C, and Karin M. The E3 ubiquitin ligase itch couples JNK activation to TNFalpha-induced cell death by inducing c-FLIP(L) turnover. Cell. 2006 Feb. 10; 124(3):601-131

CSNK1D = CSNK1D (Homo sapiens, UniProt P48730); assay: Protein kinase assay (Kinome assay); assay type: binding
Excerpt: (§1) The compounds of the invention were subjected to protein kinase assay.

DYRK1B = DYRK1B (Homo sapiens, UniProt Q9Y463); assay: Protein kinase assay (Kinome assay); assay type: binding
Sequence of DYRK1B (Q9Y463 whole entry, species assumed): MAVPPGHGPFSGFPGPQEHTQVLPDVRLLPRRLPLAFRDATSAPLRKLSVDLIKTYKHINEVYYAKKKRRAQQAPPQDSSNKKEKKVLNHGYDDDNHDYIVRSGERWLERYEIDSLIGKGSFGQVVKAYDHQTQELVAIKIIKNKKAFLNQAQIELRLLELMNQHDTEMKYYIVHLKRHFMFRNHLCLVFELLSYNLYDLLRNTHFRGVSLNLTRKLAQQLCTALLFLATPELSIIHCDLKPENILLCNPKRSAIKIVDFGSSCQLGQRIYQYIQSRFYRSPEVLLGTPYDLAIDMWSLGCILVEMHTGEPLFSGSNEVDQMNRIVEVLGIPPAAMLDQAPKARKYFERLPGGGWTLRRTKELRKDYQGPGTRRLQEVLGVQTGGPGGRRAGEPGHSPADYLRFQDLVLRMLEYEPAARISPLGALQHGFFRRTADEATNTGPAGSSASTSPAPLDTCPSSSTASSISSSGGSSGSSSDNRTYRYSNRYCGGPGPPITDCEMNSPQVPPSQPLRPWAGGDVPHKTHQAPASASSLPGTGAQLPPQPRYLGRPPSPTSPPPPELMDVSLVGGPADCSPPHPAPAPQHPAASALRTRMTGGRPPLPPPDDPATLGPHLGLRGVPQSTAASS
Excerpt: as §1

JNK1 = JNK1 (Homo sapiens, UniProt P45983); assay: Protein kinase assay (Kinome assay); assay type: binding
Sequence of JNK1 (P45983 whole entry, species assumed): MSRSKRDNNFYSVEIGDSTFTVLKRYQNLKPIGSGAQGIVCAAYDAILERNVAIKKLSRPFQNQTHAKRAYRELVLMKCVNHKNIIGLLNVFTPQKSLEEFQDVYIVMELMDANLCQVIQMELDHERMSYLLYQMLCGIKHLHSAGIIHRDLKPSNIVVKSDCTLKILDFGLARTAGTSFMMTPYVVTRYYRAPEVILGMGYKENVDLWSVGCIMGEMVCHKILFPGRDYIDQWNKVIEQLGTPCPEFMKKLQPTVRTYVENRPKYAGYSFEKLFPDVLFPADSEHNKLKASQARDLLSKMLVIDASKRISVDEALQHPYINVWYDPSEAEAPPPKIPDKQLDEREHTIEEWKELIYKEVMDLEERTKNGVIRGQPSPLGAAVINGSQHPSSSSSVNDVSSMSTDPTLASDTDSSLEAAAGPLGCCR
Excerpt: as §1

JNK3 = JNK3 (Homo sapiens, UniProt P53779); assay: Protein kinase assay (Kinome assay); assay type: binding
Sequence of JNK3 (P53779 whole entry, species assumed): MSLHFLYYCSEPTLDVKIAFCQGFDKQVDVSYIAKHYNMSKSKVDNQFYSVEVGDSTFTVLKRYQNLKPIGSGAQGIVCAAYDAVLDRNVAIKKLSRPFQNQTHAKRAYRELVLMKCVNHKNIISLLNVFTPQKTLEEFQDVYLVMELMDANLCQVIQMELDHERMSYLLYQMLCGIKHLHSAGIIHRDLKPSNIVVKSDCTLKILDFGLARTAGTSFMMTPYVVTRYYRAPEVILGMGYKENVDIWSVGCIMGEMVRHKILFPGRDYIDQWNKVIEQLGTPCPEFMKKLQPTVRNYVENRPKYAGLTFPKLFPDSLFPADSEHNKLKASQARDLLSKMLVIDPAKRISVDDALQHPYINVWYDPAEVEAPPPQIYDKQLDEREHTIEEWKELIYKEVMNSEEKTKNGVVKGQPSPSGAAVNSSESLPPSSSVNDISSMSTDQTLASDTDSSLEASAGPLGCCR
Excerpt: as §1

PCTK1 = PCTK1 (Homo sapiens, UniProt Q00536); assay: Protein kinase assay (Kinome assay); assay type: binding
Sequence of PCTK1 (Q00536 whole entry, species assumed): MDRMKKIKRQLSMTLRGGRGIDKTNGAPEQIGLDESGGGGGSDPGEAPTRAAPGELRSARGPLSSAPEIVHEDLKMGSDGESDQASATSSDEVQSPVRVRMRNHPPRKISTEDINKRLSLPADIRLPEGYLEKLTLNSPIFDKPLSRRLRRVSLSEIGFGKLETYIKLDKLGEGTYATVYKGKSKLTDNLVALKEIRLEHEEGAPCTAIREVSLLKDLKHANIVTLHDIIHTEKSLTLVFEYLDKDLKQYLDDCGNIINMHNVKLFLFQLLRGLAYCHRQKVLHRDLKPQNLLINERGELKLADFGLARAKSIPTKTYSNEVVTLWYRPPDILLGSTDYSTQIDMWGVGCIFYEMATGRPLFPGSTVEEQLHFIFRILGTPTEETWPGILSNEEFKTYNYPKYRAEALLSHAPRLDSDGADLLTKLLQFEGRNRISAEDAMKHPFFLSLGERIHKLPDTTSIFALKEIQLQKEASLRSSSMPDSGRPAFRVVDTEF
Excerpt: as §1

RIOK2 = RIOK2 (Homo sapiens, UniProt Q9BVS4); assay: Protein kinase assay (Kinome assay); assay type: binding
Sequence of RIOK2 (Q9BVS4 whole entry, species assumed): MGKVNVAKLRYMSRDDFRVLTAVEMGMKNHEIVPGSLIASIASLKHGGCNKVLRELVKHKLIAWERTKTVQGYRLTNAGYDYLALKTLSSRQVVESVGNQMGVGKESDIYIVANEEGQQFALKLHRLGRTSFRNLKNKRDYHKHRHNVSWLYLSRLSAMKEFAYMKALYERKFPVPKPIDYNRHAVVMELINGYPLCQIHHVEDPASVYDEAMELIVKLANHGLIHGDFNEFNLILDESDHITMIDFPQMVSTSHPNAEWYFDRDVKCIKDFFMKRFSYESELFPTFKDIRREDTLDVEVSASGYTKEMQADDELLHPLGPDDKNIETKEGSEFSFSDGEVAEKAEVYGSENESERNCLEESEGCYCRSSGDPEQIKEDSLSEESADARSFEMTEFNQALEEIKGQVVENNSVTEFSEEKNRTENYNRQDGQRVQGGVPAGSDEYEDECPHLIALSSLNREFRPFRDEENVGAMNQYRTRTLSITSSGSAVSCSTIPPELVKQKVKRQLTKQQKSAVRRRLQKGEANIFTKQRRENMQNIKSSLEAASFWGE
Excerpt: as §1

ROCK2 = ROCK2 (Homo sapiens, UniProt O75116); assay: Protein kinase assay (Kinome assay); assay type: binding
Sequence of ROCK2 (O75116 whole entry, species assumed): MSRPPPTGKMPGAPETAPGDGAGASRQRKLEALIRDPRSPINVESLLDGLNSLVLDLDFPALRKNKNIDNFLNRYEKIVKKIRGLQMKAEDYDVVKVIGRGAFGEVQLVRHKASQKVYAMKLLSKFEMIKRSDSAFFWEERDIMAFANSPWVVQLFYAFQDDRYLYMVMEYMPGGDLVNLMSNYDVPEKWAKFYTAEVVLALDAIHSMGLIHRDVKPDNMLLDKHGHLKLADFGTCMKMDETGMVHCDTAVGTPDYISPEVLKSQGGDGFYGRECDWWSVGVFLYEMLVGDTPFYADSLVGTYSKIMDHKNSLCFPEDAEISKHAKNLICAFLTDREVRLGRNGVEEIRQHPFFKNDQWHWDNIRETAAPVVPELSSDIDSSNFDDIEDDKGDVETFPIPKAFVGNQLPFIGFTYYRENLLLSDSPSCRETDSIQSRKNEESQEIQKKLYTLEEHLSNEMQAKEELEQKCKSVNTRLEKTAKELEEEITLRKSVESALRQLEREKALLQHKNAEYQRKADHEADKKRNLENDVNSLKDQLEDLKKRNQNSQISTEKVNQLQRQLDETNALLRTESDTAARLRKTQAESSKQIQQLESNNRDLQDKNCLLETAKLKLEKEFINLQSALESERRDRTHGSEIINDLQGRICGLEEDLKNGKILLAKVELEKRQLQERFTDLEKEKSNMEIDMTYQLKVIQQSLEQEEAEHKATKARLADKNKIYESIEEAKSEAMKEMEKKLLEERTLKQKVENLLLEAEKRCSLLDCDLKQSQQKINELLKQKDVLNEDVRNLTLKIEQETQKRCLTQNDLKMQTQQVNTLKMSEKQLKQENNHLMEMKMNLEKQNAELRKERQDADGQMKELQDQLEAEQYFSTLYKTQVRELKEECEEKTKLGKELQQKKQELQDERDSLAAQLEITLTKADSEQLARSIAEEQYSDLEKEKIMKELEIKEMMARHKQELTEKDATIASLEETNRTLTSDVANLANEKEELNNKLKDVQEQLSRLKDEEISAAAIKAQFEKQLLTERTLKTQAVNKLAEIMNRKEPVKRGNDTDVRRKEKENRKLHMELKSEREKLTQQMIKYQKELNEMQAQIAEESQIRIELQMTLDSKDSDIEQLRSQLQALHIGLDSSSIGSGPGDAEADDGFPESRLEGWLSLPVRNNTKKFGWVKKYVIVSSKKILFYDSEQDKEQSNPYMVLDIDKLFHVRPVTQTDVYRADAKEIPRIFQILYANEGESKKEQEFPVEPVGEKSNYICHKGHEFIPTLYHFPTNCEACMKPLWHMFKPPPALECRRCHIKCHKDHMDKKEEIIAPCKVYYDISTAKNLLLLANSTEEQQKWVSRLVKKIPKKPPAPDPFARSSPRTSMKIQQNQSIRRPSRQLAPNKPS
Excerpt: as §1

HCT-116 = assay: Growth inhibition assay; assay type: cell-based; details: Homo sapiens; HCT-116 (Colorectal cancer), 48 hours; read-out: GI50
Protocol: (§2) Cells were seeded in 96-well plastic plates and exposed to MPT0L056 for 48 hours. Cell viability was assessed using the 3-(4,5-dimethylthiazol-2-yl)-2,5-diphenyltetrazolium bromide assay. Growth inhibition was expressed as the percentage of surviving cells in drug-treated versus DMSO-treated control cells.
(§3) The compounds of the invention were subjected to growth inhibition assay.

HL-60 = assay: Growth inhibition assay; assay type: cell-based; details: Homo sapiens; HL-60 (Leukemia), 48 hours
Protocol: as §2, §3

Hep 3B = assay: Growth inhibition assay; assay type: cell-based; details: Homo sapiens, Hep3B; Hep 3B (Liver cancer), 48 hours; read-out: GI50
Protocol: as §2, §3

MDA-MB-231 = assay: Growth inhibition assay; assay type: cell-based; details: Homo sapiens; MDA-MB-231 (Breast cancer), 48 hours; read-out: GI50
Protocol: as §2, §3

[1] = system: IL-6 production in human rheumatoid arthritis fibroblast-like synoviocyte cells; assay: IL-6 production in RAFLS cells (ELISA); assay type: cell-based; details: RA-FLS, 24 h
Protocol: Cell culture. Human rheumatoid arthritis fibroblast-like synoviocytes (RAFLS) from Cell Application Inc. (San Diego, CA, USA) were grown in synoviocyte growth medium from the same supplier.
IL-6 Determination. RA-FLS (2.5×10^4) was treated with various concentrations of MPT0L056 for 24 h, then the medium was collected and assayed for IL-6 using commercial ELISA kit.

[2] = system: adjuvant-induced arthritis (AIA); assay: Adjuvant-induced arthritis (AIA) model; assay type: in vivo, Lewis rats
Protocol: In vivo adjuvant-induced arthritis (AIA) model. Five-week-old male Lewis rats were obtained from the National Laboratory Animal Center (Taipei, Taiwan). Complete Freund's adjuvant (CFA) was prepared by suspending heat-killed Mycobacterium butyricum (Difco) in mineral oil at 3 mg/mL. CFA-induced arthritis was induced by intradermal injection of 100 μL, of the CFA emulsion into the base of the right hind paw on day 0. […] On days 0, 2, 6, 9, 13, 17, and 21, the animals were weighed and both hind paw volumes measured using a digital plethysmometer (Diagnostic & Research Instruments Co. Ltd, Taipei, Taiwan). On day 21, micro-computed tomography (micro-CT) of the paws was performed by the Core Facilities Center of the National Research Program for Biopharmaceuticals using an in vivo micro-CT scanner (Skyscan 1176, Bruker Corp., Kontich, Belgium) at 18 μm resolution and 180° scanning with a rotation step of 0.8o per image, 300 msec integration time, 70 keV photon energy, and 350 μA current.
Quantification of volumetric bone mineral density (BMD) and bone volume (BV) was performed in a defined bone area ranging 12 mm from tarsals to the end of the calcaneus. The bone mineral content (BMC) was described by the product of BV and BMD.

Sequence of ITCH (Q96J02 whole entry, species assumed): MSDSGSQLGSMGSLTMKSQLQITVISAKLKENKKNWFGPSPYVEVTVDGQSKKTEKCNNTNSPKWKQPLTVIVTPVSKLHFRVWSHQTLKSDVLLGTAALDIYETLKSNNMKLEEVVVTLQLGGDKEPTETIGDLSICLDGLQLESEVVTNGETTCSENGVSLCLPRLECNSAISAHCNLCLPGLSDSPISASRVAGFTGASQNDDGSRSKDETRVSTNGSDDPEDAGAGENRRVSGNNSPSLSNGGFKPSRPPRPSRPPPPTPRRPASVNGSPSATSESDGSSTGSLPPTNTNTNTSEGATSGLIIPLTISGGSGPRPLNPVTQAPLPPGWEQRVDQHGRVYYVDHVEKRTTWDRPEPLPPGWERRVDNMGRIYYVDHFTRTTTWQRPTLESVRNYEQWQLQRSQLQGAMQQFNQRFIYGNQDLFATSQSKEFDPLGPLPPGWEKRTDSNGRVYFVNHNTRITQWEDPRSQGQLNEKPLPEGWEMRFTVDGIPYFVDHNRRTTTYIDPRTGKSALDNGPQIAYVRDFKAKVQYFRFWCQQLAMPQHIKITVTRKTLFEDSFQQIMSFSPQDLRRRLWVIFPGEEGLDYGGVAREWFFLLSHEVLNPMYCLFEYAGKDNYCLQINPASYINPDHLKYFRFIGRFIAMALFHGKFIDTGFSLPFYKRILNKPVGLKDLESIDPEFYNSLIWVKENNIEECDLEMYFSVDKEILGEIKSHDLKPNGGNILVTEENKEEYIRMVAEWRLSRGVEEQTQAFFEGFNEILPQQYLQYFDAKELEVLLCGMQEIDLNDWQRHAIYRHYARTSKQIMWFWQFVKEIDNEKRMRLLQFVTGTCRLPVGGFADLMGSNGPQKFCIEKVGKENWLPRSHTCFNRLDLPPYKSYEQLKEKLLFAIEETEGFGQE

With O=C(Nc1ccncc1)c1ccc(CNC2=C(Cl)C(=O)c3ccccc3C2=O)cc1 [MPT0L056] the “blocking of ITCH self-ubiquitination (Lys-dependent)” value (ITCH) was “blocks ITCH self-ubiquitnation (Lys-dependent) efficiently”, the pKd (CSNK1D) was 5.70 and the pKd (DYRK1B) was 5.85. The pKd (JNK1) was 5.38, the pKd (JNK3) was 6.37 and the pKd (PCTK1) was < 5.00. It also gave a pKd (RIOK2) of 5.18, a pKd (ROCK2) of 6.24 and a GI50 (HCT-116) of 4300 nM. The GI50 (HL-60) was 1600 nM, the GI50 (Hep 3B) was 1400 nM and the GI50 (MDA-MB-231) was 2900 nM. The pIC50 [1] was 5.14, the “bone mineral content (BMC) loss” value ([2]; AIA model, FIG. 17) was “can prevent” and the “bone mineral density (BMD) loss” value ([2]; AIA model, FIG. 17) was “can prevent”. For the same compound, the “development of arthritis (micro-CT)” value ([2]; MPT0L056 25 mg/kg, po, qd, day 2 to day 21, FIG. 15) was “inhibits development of arthritis” and the paw swelling ([2]; MPT0L056 25 mg/kg, po, qd, day 2 to day 21, FIG. 16) was “significantly reduces paw swelling”.
